From US20170304388A1, “NEW INDICATION OF CARDIOVASCULAR DRUGS FOR PREPARATION OF CANCER INHIBITION PHARMACEUTICAL COMPOSITION” (LAUNX BIOMEDICAL CO., LTD., priority 2014, published 2017) come the findings set out here.

Molecules are shown by their SMILES. Structures can show the parent of a compound that is named as a salt.

Assay type in all cases: cell-based
The subject of one assay is 786-O. Nature of the assay: Cell viability analysis (WST-1), 786-O. As to conditions: Homo sapiens, 786-0, 72 h, Table 4, repeated experiments, drug 10 μM, read-out: survival rate (viability) of cancer cells, 786-O. How it is done:
(§1) Subculture the different types of cancer cells. The cancer cells includes lung cancer, gastric cancer, hepatic cancer, colon cancer, skin cancer, cervical cancer, prostate cancer, bladder cancer, breast cancer, leukemia, pancreatic cancer, ovarian cancer, tongue cancer, osteosarcoma, and renal cancer. The cell numbers were counted and reseed as 2×10^6 in cell culture plate/flask. Then, the culture medium for culturing the cell lines was added to a volume of 10 ml, and the cells were cultured for 2-3 days. Then, the cells were suspended for loading into 96-well plates. The cell number was 3000 cells and the volume of the culture medium was 100 ul each well.
(§2) Removing the original culture medium from 96-well plate. Then add 100 μl of commercially drug at a concentration of 10 μM per well. After 72 hours, add the diluted WST-1 reagent to the well with 100 μl/well, and the diluted WST-1 reagent was acquired from the dilution of 9:1 medium and WST-1 stock reagent. Finally, the total volume of each well are 200 μl/well. Culture the 96-well plate at 37° C. for 30 to 90 minutes. Detecting and calculating the survival rate of each cancer cells with an ELISA reader at OD450 nm. The lower viability of cancer cells represents better inhibition effect via the drugs. Otherwise, the higher viability of cancer cells represents worse inhibition effect via the drugs.
(§3) According to the above mentioned cardiovascular drugs for cancer growth inhibition in Table 3, the inventors took the repeat experiments for the cardiovascular drugs to check the growth inhibitory effects of cancer cells by the cardiovascular drugs. […] 4.

A further assay has as its system SAS. The assay is described as follows: Cell viability analysis (WST-1), SAS. As to conditions: 72 h, Table 4, repeated experiments, drug 10 μM, read-out: survival rate (viability) of cancer cells, SAS. How it is done: as §1, §2, §3
For a further assay, the system named is U2OS. Nature of the assay: Cell viability analysis (WST-1), U2OS. As to conditions: Homo sapiens, U2OS, 72 h, Table 4, repeated experiments, drug 10 μM, read-out: survival rate (viability) of cancer cells, U2OS. As to the method: as §1, §2, §3
For assay [1], the system named is MCF7 (Mammary Gland, Adenocarcinoma). The assay is described as follows: Cell viability analysis (WST-1), MCF7. As to conditions: Homo sapiens, MCF7, 72 h, Table 4, repeated experiments, drug 10 μM, WST-1, read-out: survival rate (viability) of cancer cells, MCF-7.
For a further assay, the system named is BCC. The assay is described as follows: Cell viability analysis (WST-1), BCC. As to conditions: BCC, 72 h, Table 4, repeated experiments, drug 10 μM, read-out: survival rate (viability) of cancer cells, BCC.
Another assay deals with MDA-MB231. The assay is described as follows: Cell viability analysis (WST-1), MDA-MB231. As to conditions: Homo sapiens, MDA-MB-231, 72 h, Table 4, repeated experiments, drug 10 μM, read-out: survival rate (viability) of cancer cells, MDA-MB231.
Assay [2] deals with HCT116 (Colorectal Carcinoma). The assay is described as follows: Cell viability analysis (WST-1), HCT116. As to conditions: Homo sapiens, HCT-116, 72 h, Table 4, repeated experiments, drug 10 μM, WST-1, read-out: survival rate (viability) of cancer cells, HCT116.
Another assay relates to cancer cell lines. The assay is described as follows: Growth inhibitory effects on the panel of cancer cell lines. As to conditions: drug 10 μM, 72 hours, WST-1.
The subject of a further assay is C-33A. Nature of the assay: Cell viability analysis (WST-1), C-33A. As to conditions: Homo sapiens, C-33-A, 72 h, Table 4, repeated experiments, drug 10 μM, read-out: survival rate (viability) of cancer cells, C-33A. As to the method: as §1, §2, §3
The test system of assay [3] is MKN-45 (Gastric Adenocarcinoma). Nature of the assay: Cell viability analysis (WST-1), MKN-45. As to conditions: Homo sapiens, MKN-45, 72 h, Table 4, repeated experiments, drug 10 μM, WST-1, read-out: survival rate (viability) of cancer cells, MKN-45.
In assay [4] the test system is LoVo (Colorectal Adenocarcinoma). The assay is described as follows: Cell viability analysis (WST-1), LoVo. As to conditions: Homo sapiens, LoVo, 72 h, Table 4, repeated experiments, drug 10 μM, WST-1, read-out: survival rate (viability) of cancer cells, LoVo.
The next assay deals with NIH-OVCAR-3. Nature of the assay: Cell viability analysis (WST-1), NIH-OVCAR-3. As to conditions: Homo sapiens, OVCAR-3, 72 h, Table 4, repeated experiments, drug 10 μM, read-out: survival rate (viability) of cancer cells, NIH-OVCAR-3. How it is done:
as §1, §2, §3

For assay [5], the system named is HepG2 (Hepatocellular Carcinoma). The assay is described as follows: Cell viability analysis (WST-1), HepG2. As to conditions: Homo sapiens, HepG2, 72 h, Table 4, repeated experiments, drug 10 μM, WST-1, read-out: survival rate (viability) of cancer cells, HepG2.
The next assay relates to BxPC-3. Nature of the assay: Cell viability analysis (WST-1), BxPC-3. As to conditions: Homo sapiens, BXPC-3, 72 h, Table 4, repeated experiments, drug 10 μM, read-out: survival rate (viability) of cancer cells, BxPC-3. As to the method:
as §1, §2, §3

For assay [6], the system named is A375 (Amelanotic Melanoma). The assay is described as follows: Cell viability analysis (WST-1), A375. As to conditions: Homo sapiens, A-375, 72 h, Table 4, repeated experiments, drug 10 μM, WST-1, read-out: survival rate (viability) of cancer cells, A375.
Assay [7] relates to A549 (Lung Adenocarcinoma). Nature of the assay: Cell viability analysis (WST-1), A549. As to conditions: Homo sapiens, A549, 72 h, Table 4, repeated experiments, drug 10 μM, WST-1, read-out: survival rate (viability) of cancer cells, A549.
Assay [8] relates to AGS (Gastric Adenocarcinoma). Nature of the assay: Cell viability analysis (WST-1), AGS. As to conditions: 72 h, Table 4, repeated experiments, drug 10 μM, WST-1, read-out: survival rate (viability) of cancer cells, AGS.
The subject of a further assay is T24. The assay is described as follows: Cell viability analysis (WST-1), T24. As to conditions: Homo sapiens, T-24, 72 h, Table 4, repeated experiments, drug 10 μM, read-out: survival rate (viability) of cancer cells, T24. How it is done:
as §1, §2, §3

The test system of another assay is TOV-21G. The assay is described as follows: Cell viability analysis (WST-1), TOV-21G. As to conditions: Homo sapiens, TOV21G, 72 h, Table 4, repeated experiments, drug 10 μM, read-out: survival rate (viability) of cancer cells, TOV-21G. As to the method:
as §1, §2, §3

A further assay concerns AsPC-1. Nature of the assay: Cell viability analysis (WST-1), AsPC-1. As to conditions: Homo sapiens, ASPC1, 72 h, Table 4, repeated experiments, drug 10 μM, read-out: survival rate (viability) of cancer cells, AsPC-1. As to the method: as §1, §2, §3
Assay [9] concerns TSGH-8301 (Urinary Bladder Carcinoma). Nature of the assay: Cell viability analysis (WST-1), TSGH-8301. As to conditions: 72 h, Table 4, repeated experiments, drug 10 μM, WST-1, read-out: survival rate (viability) of cancer cells, TSGH-8301.
Assay [10] relates to HeLa (Cervix Adenocarcinoma). The assay is described as follows: Cell viability analysis (WST-1), HeLa. As to conditions: Homo sapiens, HeLa, 72 h, Table 4, repeated experiments, drug 10 μM, WST-1, read-out: survival rate (viability) of cancer cells, HeLa.
Another assay deals with Hep3B. Nature of the assay: Cell viability analysis (WST-1), Hep3B. As to conditions: Homo sapiens, Hep3B, 72 h, Table 4, repeated experiments, drug 10 μM, read-out: survival rate (viability) of cancer cells, Hep3B. As to the method: as §1, §2, §3
Assay [11] concerns PC3 (Prostate Adenocarcinoma). The assay is described as follows: Cell viability analysis (WST-1), PC3. As to conditions: 72 h, Table 4, repeated experiments, drug 10 μM, WST-1, read-out: survival rate (viability) of cancer cells, PC-3.
In assay [12] the test system is H1650 (Lung Adenocarcinoma). Nature of the assay: Cell viability analysis (WST-1), H1650. As to conditions: Homo sapiens, NCI-H1650, 72 h, Table 4, repeated experiments, drug 10 μM, WST-1, read-out: survival rate (viability) of cancer cells, H1650.

With `COc1cc2nc(N3CCN(C(=O)c4ccco4)CC3)nc(N)c2cc1OC` [Prazosin HCl], the viability at 10 µM came out at 79.5% with 786-O; 114% in the assay with SAS; 98% in the assay with U2OS; 87.6% in assay [1]; 73.5% in the assay with BCC; 85.1% in the assay with MDA-MB231. The viability at 10 µM turned out to be 96.4% in assay [2]; 97.2% with C-33A; 70.1% in assay [3]; 95.7% in assay [4]; 88.9% with NIH-OVCAR-3; 87.2% in [5]. The viability at 10 µM stood at 54% in the assay with BxPC-3; 77.9% in [6]; 72.2% in assay [7]; 86.8% in assay [8]; 88.5% with T24; 91.9% in the assay on TOV-21G. Further, the viability at 10 µM with AsPC-1 is 80.4%; in assay [9], 99.8%; in assay [10], 90.9%; in the assay with Hep3B, 116%. Also, the “inhibition effect on different cancer cell lines (in words)” value in the assay on cancer cell lines was “significant inhibition effect”.
Consider `CC1=C(C(=O)OC(C)C)C(c2cccc([N+](=O)[O-])c2)C(C(=O)OC2CN(C(c3ccccc3)c3ccccc3)C2)=C(N)N1` (stereo not drawn) [Azelnidipine], for which the viability at 10 µM in the assay with SAS is 76.8%; in assay [1] it was 60.8%; in the assay with BCC, 100%; in assay [2], 111%; in [11], 121%; in assay [3], 139%. For the same molecule, the viability at 10 µM came out at 64.6% in the assay on BxPC-3, 90.2% in assay [8], 53.6% with AsPC-1 and 115% in [9].
For the molecule `CCCCc1nc(Cl)c(CO)n1Cc1ccc(-c2ccccc2-c2nn[nH]n2)cc1` [Losartan potassium], the viability at 10 µM in the assay with 786-O is 96.3%; in the assay with SAS it was 95.7%; in the assay with U2OS it was 105%; in [1] it was 87.6%; with BCC, 90.2%; in [2], 106%. Further, the viability at 10 µM in the assay with C-33A was found to be 108%; in assay [11], 120%; in [3], 82.8%; in assay [12] it was 77.2%; in assay [4], 106%; with NIH-OVCAR-3, 98.7%. The viability at 10 µM was found to be 93.9% in [5]; 77.7% with BxPC-3; 96.6% in [6]; 96% in assay [7]; 74.1% in assay [8]; 66.3% with T24. Besides, the viability at 10 µM came out at 78.6% in the assay on TOV-21G; 86.4% in the assay on AsPC-1; 92% in [9]; 83.4% in assay [10]; 103% in the assay on Hep3B. For the same molecule, the “inhibition effect on different cancer cell lines (in words)” value in the assay on cancer cell lines is “significant inhibition effect”.
`COC(=O)C1=C(C)NC(C)=C(C(=O)OC2CCCN(Cc3ccccc3)C2)C1c1cccc([N+](=O)[O-])c1` (stereo not drawn) [Benidipine hydrochloride]: the viability at 10 µM in the assay with 786-O is 78.9%; in the assay on SAS it was 64.5%; in the assay on U2OS it was 54.2%; in [1], 77.3%; in the assay with MDA-MB231, 77.3%; in assay [2], 90.6%. Further, the viability at 10 µM in the assay with C-33A worked out at 105%; in assay [11], 88.5%; in assay [3], 92.9%; in assay [12], 64.5%; in assay [4] it was 69%; with NIH-OVCAR-3, 85.2%. Moreover, the viability at 10 µM in assay [5] is 83.6%; in the assay with BxPC-3, 73.8%; in [6], 76%; in assay [7], 70.3%; in assay [8] it was 87.8%; in the assay on T24, 61%. Also, the viability at 10 µM in the assay with TOV-21G turned out to be 47.5%; in the assay with AsPC-1 it was 63.4%; in assay [9], 81.5%; in [10], 92.9%; with Hep3B, 98.8%. The “inhibition effect on different cancer cell lines (in words)” value in the assay on cancer cell lines was “significant inhibition effect”.
